Measured values: ChEMBL document CHEMBL1152991, “Tetracycline resistance in Ureaplasma spp. and Mycoplasma hominis: prevalence in Bordeaux, France, from 1999 to 2002 and description of two tet(M)-positive isolates of M. hominis susceptible to tetracyclines” (2008)
In brackets after ≈: the same amount, converted by molar mass.

Tests used:
Type in all cases: functional
Metamycoplasma hominis [1] = assay: Antimicrobial activity against tetracycline-susceptible Mycoplasma hominis isolate 3425 expressing tet(M) gene after 20 passages of drug treatment
Metamycoplasma hominis [2] = assay: Antimicrobial activity against tetracycline-resistant Mycoplasma hominis isolate overexpressing tet(M) gene
Metamycoplasma hominis [3] = assay: Antimicrobial activity against tetracycline-susceptible Mycoplasma hominis isolate 3430 expressing tet(M) gene after 10 passages of drug treatment
Ureaplasma = assay: Antimicrobial activity against tetracycline-resistant Ureaplasma sp. isolate overexpressing tet(M) gene
Metamycoplasma hominis [4] = assay: Antimicrobial activity against tetracycline-susceptible Mycoplasma hominis isolate 3430 expressing tet(M) gene after 3 passages of drug treatment

| SMILES | MIC (Metamycoplasma hominis [1]) [µg/mL] | MIC (Metamycoplasma hominis [2]) [µg/mL] | MIC (Metamycoplasma hominis [3]) [µg/mL] | MIC (Ureaplasma) [µg/mL] | MIC (Metamycoplasma hominis [4]) [µg/mL] |
| --- | --- | --- | --- | --- | --- |
| C[C@H]1c2cccc(O)c2C(=O)C2=C(O)[C@]3(O)C(=O)C(C(N)=O)=C(O)[C@@H](N(C)C)[C@@H]3[C@@H](O)[C@@H]21.O [DOXYCYCLINE] | 0.12 | 32 | 32 | > 32 | 0.12 |
| CN(C)c1ccc(O)c2c1C[C@H]1C[C@H]3[C@H](N(C)C)C(O)=C(C(N)=O)C(=O)[C@@]3(O)C(O)=C1C2=O [MINOCYCLINE] | – | 32 (≈ 69.9 µM) | – | > 32 | – |
| CN(C)[C@@H]1C(O)=C(C(N)=O)C(=O)[C@@]2(O)C(O)=C3C(=O)c4c(O)cccc4[C@@](C)(O)[C@H]3C[C@@H]12 [TETRACYCLINE] | – | 32 (≈ 72 µM) | – | > 32 | – |
